Test results as given in patent publication US20110319384A1, “Pharmaceutical Compositions” (priority 2005, published 2011).

Tests used:
[1] = test system: patients with major depression with prominent anxiety symptoms; assay: Example 33: double-blind randomized 8-week study, quetiapine augmentation of SSRIs/SNRIs
[2] = test system: patients with refractory depression (RD); assay: Example 29: Cognitive Behavior Therapy (CBT) plus quetiapine or placebo
[3] = test system: patients with treatment resistant major depression; assay: Example 24: augmentation of antidepressant therapy, quetiapine versus lithium, 56 days
Experimental: The study compared tolerability and efficacy. […] Lithium was initiated at 600 mg/day, and maintained over Week 1 and 2 and subsequently adjusted to attain a level of 0.8-1.2 mmol/L. Lithium levels were taken weekly.
A total of 20 patients were randomized to 1 of the 2 treatment groups. The study population included men and women aged 18-65 years, with a diagnosis of major depression according to DSM-IV, Hamilton Depression Rating Scale (HAM-D)≧20 and a Clinical Global […] (CGI) score ≧4.
Patients were evaluated at baseline and then on days 7, 14, 28, 42, and 56 using the HAM-D, Montgomery-Asberg […] (MADRS), SAS, and Widlocher Psychomotor Retardation Scale.

[4] = add-on to antidepressant, mean doses quetiapine 430 mg/day, lithium 825 mg/day

patients with an increase in bodyweight ≧5 kg ([1]; no patients in the placebo group): 6 patients
SAS scale scores versus baseline ([3]; in vivo): decreased scores from baseline
SMILES: OCCOCCN1CCN(C2=Nc3ccccc3Sc3ccccc32)CC1 [quetiapine, 11-[4-[2-(2-hydroxyethoxy)ethyl]-1-piperazinyl]-dibenzo[b,f][1,4]thiazepine]
mean HAM-A score at baseline ([1]; added to SSRI/SNRI): about 23
mean HAM-D score at baseline ([1]; added to SSRI/SNRI): about 23
mean HAM-A score after treatment ([1]; added to SSRI/SNRI, 8 weeks): about 10
mean HAM-D score after treatment ([1]; added to SSRI/SNRI, 8 weeks): about 12
mean improvement from baseline in HAM-A scores ([1]; added to SSRI/SNRI, 8 weeks, placebo about 5): about 13
mean improvement from baseline in HAM-D scores ([1]; added to SSRI/SNRI, 8 weeks, placebo about 5, mean dose 202 mg/day): about 11
CGI-S and GAS assessments ([1]; in vivo): significantly more effective than placebo
serious AEs ([1]; in vivo): no serious AEs were reported
remission rate as assessed by HAM-A (total score of 7 or lower at Week 8) ([1]; placebo 17%): 41%
remission rate as assessed by HAM-D (total score of 7 or lower at Week 8) ([1]; placebo 17%): 31%
response rate as assessed by HAM-A (≧50% reduction to Week 8) ([1]; placebo 28%): 62%
response rate as assessed by HAM-D (≧50% reduction to Week 8) ([1]; placebo 28%): 48%
lack of response drop-outs ([2]; 50% drop-out rate in the CBT+placebo arm): no lack of response drop-outs
all primary efficacy measures (MADRS, HAM-D) ([2]; CBT 12 weekly sessions, quetiapine up to 200 mg twice a day, no significant reductions with CBT+placebo): significantly reduced
most common side effect ([2]; in vivo): Somnolence
serious adverse events ([2]; in vivo): No serious adverse events were observed
study survivability (at least 4 or more CBT sessions prior to withdrawal) ([2]; in vivo): increased study survivability
tolerability ([2]; in vivo): generally well-tolerated
Widlocher Psychomotor Retardation Scale mean baseline score ([3]; add-on to antidepressant): about 30
Widlocher Psychomotor Retardation Scale mean score after treatment ([3]; add-on to antidepressant): about 7
mean MADRS score after Day 7 up to Day 56 (end value) ([3]; add-on to antidepressant): about 8
mean MADRS score, start value 'After Day 7' ([3]; add-on to antidepressant): about 38
mean HAM-D score at Day 56 [3, 4]: about 5
mean HAM-D score, start value of 'From Day 7 to 56' [3, 4]: about 26
patients in remission (HAM-D) ([3]; after 56 days): about 80%
patients who responded (MADRS) ([3]; after 56 days): Eighty
patients who responded to treatment (HAM-D) ([3]; after 56 days): about 80%
patients who achieved remission (MADRS) ([3]; at 56 days): Eighty
